Measured values from PubChem BioAssay (NCI).
“And” between values parts separate entries of the source, which are not always exact repeats. Identical values can stand only once.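 Five concentrations, 48 hours, 96-well plates. The concentration for 50% growth inhibition is given as GI50. At the TGI there is no net growth.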

Key:
Experiment in all cases: NCI tumour cell line growth inhibition, 48 h
P388 leukemia = test system: P388 leukemia
OVCAR-8 ovarian = test system: OVCAR-8 ovarian
CCRF-CEM leukemia = test system: CCRF-CEM leukemia
HOP-18 NSCLC = test system: HOP-18 NSCLC
SK-MEL-28 melanoma = test system: SK-MEL-28 melanoma
SNB-19 CNS = test system: SNB-19 CNS
HOP-92 NSCLC = test system: HOP-92 NSCLC
786-0 renal = test system: 786-0 renal
TK-10 renal = test system: TK-10 renal
BT-549 breast = test system: BT-549 breast
DU-145 prostate = test system: DU-145 prostate

| SMILES | TGI (P388 leukemia) | TGI (OVCAR-8 ovarian) | TGI (CCRF-CEM leukemia) | TGI (HOP-18 NSCLC) | TGI (SK-MEL-28 melanoma) | TGI (SNB-19 CNS) | TGI (HOP-92 NSCLC) | TGI (786-0 renal) | TGI (TK-10 renal) | GI50 (BT-549 breast) | TGI (BT-549 breast) | TGI (DU-145 prostate) | GI50 (HOP-92 NSCLC) | GI50 (CCRF-CEM leukemia) | GI50 (HOP-18 NSCLC) |
| --- | --- | --- | --- | --- | --- | --- | --- | --- | --- | --- | --- | --- | --- | --- | --- |
| OCC1OC(n2cnc3cncnc32)C(O)C1O (centres undefined) | 1.59 µM | 3.17 µM | > 26.1 µM | 8.15 µM | 5.23 µM | 4.27 µM | 4.21 µM |  |  |  |  |  |  |  |  |
| Cc1ccc(C(C)(C)C[P+](C)(c2ccccc2)c2ccccc2)cc1 | 12.3 µM | > 100 µM | > 79.3 µM | > 47.8 µM | 66.4 µM | 89.3 µM | 9.5 µM |  |  |  |  |  |  |  |  |
| Cc1ccncc1.F[B-](F)(F)F.[Pt+2].c1ccc(-c2cccc(-c3ccccn3)n2)nc1 |  | 31 µM | > 100 µM |  | > 100 µM | > 66.7 µM | > 100 µM | 46.4 µM | 28.5 µM | 13.7 µM | > 78.6 µM | > 100 µM | 10.2 µM |  |  |
| [Cl][Pt+2][Cl].[NH-]C1CCCCC1[NH-] (centres undefined) | 6.91 µM and 7.39 µM and 2.14 µM | > 100 µM | > 100 µM | > 100 µM | 65.8 µM and 56.4 µM and 20.6 µM | > 100 µM | > 100 µM |  |  |  |  |  | 35.3 µM and > 100 µM and 29.7 µM | 3190 nM and 2910 nM and 872 nM | 25.6 µM and > 100 µM and 28.4 µM |
| C=C(CCC(C)C1CCC2C3=C(C(=O)CC21C)C1(C)CCC(=O)[C@@H](C)C1CC3=O)C(C)C(=O)O (some centres undefined) |  | > 100 µM | 42.2 µM |  | > 100 µM | > 100 µM | 78.7 µM | 37.8 µM | > 100 µM |  | > 100 µM | > 100 µM |  |  |  |
| CCOP(=O)(OCC)C(Nc1cccc(F)c1)c1ccccc1 (centres undefined) |  | > 100 µM | > 100 µM |  | > 100 µM | > 100 µM | > 100 µM | > 100 µM | > 100 µM |  | > 100 µM | > 100 µM |  |  |  |
| O=[N+]([O-])c1c(Br)cc(Br)c2c1Nc1c(ccc(Cl)c1Cl)S2 |  | 13.6 µM | 7.49 µM |  | 31.4 µM | 35.1 µM | 34.3 µM | 22.8 µM | 37.1 µM |  | 8.87 µM | 27.3 µM |  |  |  |
| COc1cc2c(cc1OCCCC(=O)Nc1cc(C(=O)Nc3cc(C(=O)Nc4cc(C(=O)NCCCN(C)C)n(C)n4)n(C)n3)n(C)n1)N=CC1CCCN1C2=O (centres undefined) |  | > 100 µM | > 100 µM |  | 30.7 µM | 54.4 µM | > 100 µM | > 100 µM | 40.7 µM |  | 37.5 µM | > 100 µM |  |  |  |
| CCOC(=O)c1c(CN2CCNCC2)nc2ccccc2c1-c1ccccc1 |  | 30.6 µM | 38.2 µM |  | 25.1 µM | 33.6 µM | 17.7 µM | 25.3 µM | 27.3 µM |  | 31.9 µM | 31.3 µM |  |  |  |
| NC(=S)N/N=C\c1ccc(OCc2cccc(COc3ccc(/C=N/NC(N)=S)cc3)n2)cc1 |  | > 100 µM | > 100 µM |  | > 100 µM | > 100 µM | > 100 µM | > 100 µM | > 100 µM |  | 12.2 µM | > 100 µM |  |  |  |
